{"source": "paper PMC6781459", "about": "“The study of antimicrobial, anti-cancer, anti-inflammatory and α-glucosidase inhibitory activities of Nigronapthaphenyl, isolated from an extract of Nigrospora sphaerica” (Mycology, 2019)", "target": "α-glucosidase", "assay": "α-glucosidase inhibition assay (no method or enzyme source described)", "assay_type": "biochemical"}
{"smiles": "COc1cc(OC)c2cc(C(=O)c3ccccc3)ccc2c1OC", "note": "[Nigronapthaphenyl]", "values": [{"measurement": "IC50", "result": "6.9 ± 0.5", "unit": "µM"}]}
